Measurements published in EP0626016B1, “[…] […]” (BRITISH TECHNOLOGY GROUP LIMITED, priority 1992, dated 1993).
Where two headings read alike, the source gives them in different places.

Assays:
HRP = biological target: T1, HRP (Armoracia rusticana, UniProt P00433); test: CPA as enhancer of the luminol-H2O2-HRP reaction, Amerlite microplate reader (Example 9); type: biochemical, horseradish
T1 construct: purchased Sigma Chemical Co
T1 sequence (P00433 31-338): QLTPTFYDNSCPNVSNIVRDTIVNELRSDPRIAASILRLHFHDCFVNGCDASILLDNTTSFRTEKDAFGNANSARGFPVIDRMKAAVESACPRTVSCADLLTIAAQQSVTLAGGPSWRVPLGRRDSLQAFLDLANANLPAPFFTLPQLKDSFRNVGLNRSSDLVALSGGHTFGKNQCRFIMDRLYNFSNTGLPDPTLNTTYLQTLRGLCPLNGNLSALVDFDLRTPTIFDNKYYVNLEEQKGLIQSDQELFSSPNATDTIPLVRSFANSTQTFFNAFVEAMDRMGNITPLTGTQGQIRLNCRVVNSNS
Procedure: PBBA was added in various concentrations (range 0.05µg to 0.5µg) to a luminol-H2O2 reaction in the presence and absence of HRP. The luminol-hydrogen peroxide reagent was prepared as follows: sodium luminol (12.5mg) was dissolved in 50ml of Tris buffer (0.1mol/l, pH 8.6), and 15.5µl of hydrogen peroxide (30% w/v) was mixed with 0.5ml of Tris buffer (0.lmol/l, pH 8.6). These two solutions were combined and protected from light. The luminol-hydrogen peroxide reagent (100µl of a 1:10 dilution) was added to a cuvette together with either 10µl of HRP Type VI A (HRP, Sigma Chemical Co., 1:50,000 dilution) or as a control 10µl of Tris Buffer (0.1mol/l, pH 8.6), and various amounts of PBBA (Aldrich Chemical Co.), range 0.05µg-0.5µg in 0.1mol/l Tris, pH 8.6). The reagents were mixed and the light emission recorded after 5 minutes on a Berthold Biolumat LB9500C.
The experiment of Example 1 was repeated using CPA in place of PBBA. Various dilutions of CPA (Cookson Chemicals Ltd., Southampton, UK, […] in 1 mg/ml Tris buffer, pH 8.6) were used. […] "Amerlite" is a Registered Trade Mark.

HRP Type VIA = biological target: T2, HRP Type VIA (Armoracia rusticana, UniProt P00433); details: for (d) Signal: Background: ratio (control = with no enhancer): control value in brackets not reported
T2 sequence (P00433 31-338): T1 sequence (P00433 31-338)

## O=C(O)C=Cc1ccc(B(O)O)cc1 [CPA, 4-(2-carboxyethenyl)phenylboronic acid]
HRP; CPA 0.01 µg
  Signal (no HRP): 0.094
  Signal (with HRP): 0.41
  Signal: Background ratio: 4.4
HRP; CPA 0.02 µg
  Signal (no HRP): 0.09
  Signal (with HRP): 0.46
  Signal: Background ratio: 5.1
HRP; CPA 0.05 µg
  Signal (no HRP): 0.09
  Signal (with HRP): 0.68
  Signal: Background ratio: 7.6
HRP; CPA 0.1 µg
  Signal (no HRP): 0.09
  Signal (with HRP): 1.23
  Signal: Background ratio: 14.2
HRP; CPA 0.2 µg
  Signal (no HRP): 0.08
  Signal (with HRP): 2.37
  Signal: Background ratio: 28.2
HRP; CPA 0.5 µg
  Signal (no HRP): 0.07
  Signal (with HRP): 4.57
  Signal: Background ratio: 63.4
HRP; CPA 1.0 µg
  Signal (no HRP): 0.06
  Signal (with HRP): 5.58
  Signal: Background ratio: 93.0
HRP; CPA 10 µg
  Signal (no HRP): 0.02
  Signal (with HRP): 2.49
  Signal: Background ratio: 124.9
HRP; CPA 20 µg
  Signal (no HRP): 0.003
  Signal (with HRP): 0.88
  Signal: Background ratio: 43.9

## O=C(O)c1ccc(B(O)O)cc1[N+](=O)[O-] [Compound 1045, 4-carboxy-3-nitrophenylboronic acid]
HRP Type VIA; 0.01 mg/ml, 10µl test compound
  (a) Decrease in background (without HRP with test cpd.): Y
  (b) Increase in signal (with HRP, with test cpd.): N
  (c) Increase in signal: background ratio: N (N = no)
  (d) Signal: Background: ratio (control = with no enhancer): 2.2 (2.0)
HRP Type VIA; 0.1 mg/ml, 10µl test compound
  (a) Decrease in background (without HRP with test cpd.): Y
  (b) Increase in signal (with HRP, with test cpd.): Y
  (c) Increase in signal: background ratio: Y (Column (c) shows whether there was an increase in the signal:background ratio by over 25% of the control value (Y = yes)
  (d) Signal: Background: ratio (control = with no enhancer): 18.1 (2.8)
HRP Type VIA; 1 mg/ml, 10µl test compound
  (a) Decrease in background (without HRP with test cpd.): Y
  (b) Increase in signal (with HRP, with test cpd.): N
  (c) Increase in signal: background ratio: Y (Column (c) shows whether there was an increase in the signal:background ratio by over 25% of the control value (Y = yes)
  (d) Signal: Background: ratio (control = with no enhancer): 68.5 (4.5)

## c1ccc2c(OB(Oc3cccc4ccccc34)c3cccc4ccccc34)cccc2c1 [Compound 1047, di-(1-naphthoxy)-l-naphthylborane]
HRP Type VIA; 0.01 mg/ml, 10µl test compound
  (a) Decrease in background (without HRP with test cpd.): Y
  (b) Increase in signal (with HRP, with test cpd.): N
  (c) Increase in signal: background ratio: N (N = no)
HRP Type VIA; 0.1 mg/ml, 10µl test compound
  (a) Decrease in background (without HRP with test cpd.): Y
  (b) Increase in signal (with HRP, with test cpd.): N
  (c) Increase in signal: background ratio: N (N = no)
HRP Type VIA; 1 mg/ml, 10µl test compound
  (a) Decrease in background (without HRP with test cpd.): Y
  (b) Increase in signal (with HRP, with test cpd.): N
  (c) Increase in signal: background ratio: N (N = no)

## BrCc1ccccc1OB(Oc1ccccc1CBr)c1ccccc1CBr [Compound 1049, 2-boromethylphenyl-di-(2'-boromethylphenoxy)borane]
HRP Type VIA; 0.01 mg/ml, 10µl test compound
  (a) Decrease in background (without HRP with test cpd.): Y
  (b) Increase in signal (with HRP, with test cpd.): N
  (c) Increase in signal: background ratio: N (N = no)
HRP Type VIA; 0.1 mg/ml, 10µl test compound
  (a) Decrease in background (without HRP with test cpd.): Y
  (b) Increase in signal (with HRP, with test cpd.): N
  (c) Increase in signal: background ratio: N (N = no)
  (d) Signal: Background: ratio (control = with no enhancer): 3.2 (2.9)
HRP Type VIA; 1 mg/ml, 10µl test compound
  (a) Decrease in background (without HRP with test cpd.): Y
  (b) Increase in signal (with HRP, with test cpd.): N
  (c) Increase in signal: background ratio: N (N = no)

## CSCc1ccccc1B(O)O [Compound 1050, 2-(methylthiomethyl)phenylboronic acid]
HRP Type VIA; 0.01 mg/ml, 10µl test compound
  (a) Decrease in background (without HRP with test cpd.): Y
  (b) Increase in signal (with HRP, with test cpd.): N
  (c) Increase in signal: background ratio: N (N = no)
HRP Type VIA; 0.1 mg/ml, 10µl test compound
  (a) Decrease in background (without HRP with test cpd.): Y
  (b) Increase in signal (with HRP, with test cpd.): N
  (c) Increase in signal: background ratio: N (N = no)
  (d) Signal: Background: ratio (control = with no enhancer): 3.3 (2.9)
HRP Type VIA; 1 mg/ml, 10µl test compound
  (a) Decrease in background (without HRP with test cpd.): Y
  (b) Increase in signal (with HRP, with test cpd.): N
  (c) Increase in signal: background ratio: N (N = no)

## bis(catechol)borate [Compound 1013]
HRP Type VIA
  (a) Decrease in background (without HRP with test cpd.): Y
  (b) Increase in signal (with HRP, with test cpd.): N

## boraxarophenanthrene [Compound 1014]
HRP Type VIA; 0.01 mg/ml, 10µl test compound
  (a) Decrease in background (without HRP with test cpd.): Y
  (b) Increase in signal (with HRP, with test cpd.): N
  (c) Increase in signal: background ratio: N (N = no)
  (d) Signal: Background: ratio (control = with no enhancer): 2.3
HRP Type VIA; 0.1 mg/ml, 10µl test compound
  (a) Decrease in background (without HRP with test cpd.): Y
  (b) Increase in signal (with HRP, with test cpd.): N
  (c) Increase in signal: background ratio: N (N = no)
  (d) Signal: Background: ratio (control = with no enhancer): 1.6
HRP Type VIA; 1 mg/ml, 10µl test compound
  (a) Decrease in background (without HRP with test cpd.): Y
  (b) Increase in signal (with HRP, with test cpd.): N
  (c) Increase in signal: background ratio: N (N = no)
  (d) Signal: Background: ratio (control = with no enhancer): 1.8 (2.5)

## boroglycine [Compound 1015]
HRP Type VIA; 0.01 mg/ml, 10µl test compound
  (a) Decrease in background (without HRP with test cpd.): Y
  (b) Increase in signal (with HRP, with test cpd.): Y
  (c) Increase in signal: background ratio: N (N = no)
  (d) Signal: Background: ratio (control = with no enhancer): 2.3
HRP Type VIA; 0.1 mg/ml, 10µl test compound
  (a) Decrease in background (without HRP with test cpd.): Y
  (b) Increase in signal (with HRP, with test cpd.): Y
  (c) Increase in signal: background ratio: Y (Column (c) shows whether there was an increase in the signal:background ratio by over 25% of the control value (Y = yes)
  (d) Signal: Background: ratio (control = with no enhancer): 2.9
HRP Type VIA; 1 mg/ml, 10µl test compound
  (a) Decrease in background (without HRP with test cpd.): Y
  (b) Increase in signal (with HRP, with test cpd.): N
  (c) Increase in signal: background ratio: Y (Column (c) shows whether there was an increase in the signal:background ratio by over 25% of the control value (Y = yes)
  (d) Signal: Background: ratio (control = with no enhancer): 3.1 (2.1)

## dimethylphenylboronic acid [Compound 1036]
HRP Type VIA; 0.01 mg/ml, 10µl test compound
  (a) Decrease in background (without HRP with test cpd.): Y
  (b) Increase in signal (with HRP, with test cpd.): N
  (c) Increase in signal: background ratio: Y (Column (c) shows whether there was an increase in the signal:background ratio by over 25% of the control value (Y = yes)
  (d) Signal: Background: ratio (control = with no enhancer): 2.6 (2.0)
HRP Type VIA; 0.1 mg/ml, 10µl test compound
  (a) Decrease in background (without HRP with test cpd.): Y
  (b) Increase in signal (with HRP, with test cpd.): N
  (c) Increase in signal: background ratio: Y (Column (c) shows whether there was an increase in the signal:background ratio by over 25% of the control value (Y = yes)
  (d) Signal: Background: ratio (control = with no enhancer): 7.6 (2.9)
HRP Type VIA; 1 mg/ml, 10µl test compound
  (a) Decrease in background (without HRP with test cpd.): Y
  (b) Increase in signal (with HRP, with test cpd.): N
  (c) Increase in signal: background ratio: N (N = no)

## diphenylboronic anhydride [Compound 1048]
HRP Type VIA; 0.01 mg/ml, 10µl test compound
  (a) Decrease in background (without HRP with test cpd.): Y
  (b) Increase in signal (with HRP, with test cpd.): Y
  (c) Increase in signal: background ratio: Y (Column (c) shows whether there was an increase in the signal:background ratio by over 25% of the control value (Y = yes)
  (d) Signal: Background: ratio (control = with no enhancer): 3.1 (1.8)
HRP Type VIA; 0.1 mg/ml, 10µl test compound
  (a) Decrease in background (without HRP with test cpd.): Y
  (b) Increase in signal (with HRP, with test cpd.): Y
  (c) Increase in signal: background ratio: Y (Column (c) shows whether there was an increase in the signal:background ratio by over 25% of the control value (Y = yes)
  (d) Signal: Background: ratio (control = with no enhancer): 139.0 (2.7)
HRP Type VIA; 1 mg/ml, 10µl test compound
  (a) Decrease in background (without HRP with test cpd.): Y
  (b) Increase in signal (with HRP, with test cpd.): N
  (c) Increase in signal: background ratio: Y (Column (c) shows whether there was an increase in the signal:background ratio by over 25% of the control value (Y = yes)
  (d) Signal: Background: ratio (control = with no enhancer): 100.0 (4.5)

## methyl-(2-tolylboronic acid)sulfoxide [Compound 1051]
HRP Type VIA; 0.01 mg/ml, 10µl test compound
  (a) Decrease in background (without HRP with test cpd.): Y
  (b) Increase in signal (with HRP, with test cpd.): N
  (c) Increase in signal: background ratio: N (N = no)
HRP Type VIA; 0.1 mg/ml, 10µl test compound
  (a) Decrease in background (without HRP with test cpd.): Y
  (b) Increase in signal (with HRP, with test cpd.): N
  (c) Increase in signal: background ratio: N (N = no)
HRP Type VIA; 1 mg/ml, 10µl test compound
  (a) Decrease in background (without HRP with test cpd.): Y
  (b) Increase in signal (with HRP, with test cpd.): N
  (c) Increase in signal: background ratio: N (N = no)
